The data set deals with HSD17B13. To be noted: ASO, HepaRG.

After the bases stand the sugars from the 5' end (letter, count) and the backbone: PS all phosphorothioate, else s phosphorothioate and o phosphodiester by linkage. Methylation of C is not given here. e = 2'-O-(2-methoxyethyl) (MOE); k = constrained ethyl (cEt); d = 2'-deoxy (DNA); m = 2'-O-methyl

Take “AAATATGTCCAGGTTG (sugars k3 d1 m1 d8 k3, PS)”: the target mRNA inhibition (1 µM) stood at 63%.
CAGTAGATTTGGTAGA (sugars k3 d10 k3, PS) yielded a target mRNA inhibition (1 µM) of 49%.
The same measure, in the same setting: the result for GGGAAAAAGTGTGTTC (sugars k3 d10 k3, PS) reads 20%.
In the case of CTGATTTAGAGAGCGA (sugars k3 d10 k3, PS), the target mRNA inhibition (1 µM) came out at 61%.
Still for that read-out and setting: the figure for GTAACTGTATTAAGAC (sugars k3 d10 k3, PS) is 54%.
Still for that read-out and setting: the result for AGGCACTAAAGGTTTC (sugars k3 d10 k3, PS) reads 61%; that for “GCAGUTATTAGAAGTC (sugars k3 d1 m1 d8 k3, PS)”, 59%.
Take TTGTAATCTTGAGGCA (sugars k3 d10 k3, PS): for the setting “1 µM”, the target mRNA inhibition is 27%.
Same read-out and setting: the result for TGAGAGAACTTATACA (sugars k3 d10 k3, PS) reads 32%; that for “TGATTGAGTTCTCCAC (sugars k3 d9 k3 e1, PS)”, 30%; that for ATTGTTAGCTAAGGGA (sugars k3 d10 k3, PS), 22%.
Same read-out and setting: the figure for “CTTAAGATACCCAGGT (sugars k3 d1 m1 d8 k3, PS)” is 50%; for ACGCCTAGTTTTCGGC (sugars k3 d10 k3, PS) it is 7%; for “AGTACAGTTCCTTTTC (sugars kkdddddddddkekek, PS)” it is 40%.
The same measure, in the same setting: the figure for TTTTAAGAGGCATGAA (sugars k3 d10 k3, PS) is 53%.
In turn, GACTCCAAGTAGGAGT (sugars k3 d10 k3, PS) displayed a target mRNA inhibition (1 µM) of 0%.
On the same count and under the same terms, the result for “GCCTTGAATAGCAAGC (sugars kkdddddddddkekek, PS)” reads 16%.
Same read-out and setting: the figure for TTAATCATGGGACAGG (sugars k3 d10 k3, PS) is 27%.
Where the note is “1 µM”, AATACATATCTTACTC (sugars k3 d10 k3, PS) yielded a target mRNA inhibition of 37%.
On the same count and under the same terms, the result for “AGTTGCACCGTTTTGG (sugars kkdddddddddkekek, PS)” reads 41%; that for GATATACGATGGAACA (sugars k3 d10 k3, PS), 46%; that for “CTTATGTAATAGCCAG (sugars kkdddddddddkekek, PS)”, 61%.
In the case of “GAGTTGCACCGTTTTG (sugars k3 d9 k3 e1, PS)”, under “1 µM”, the target mRNA inhibition worked out at 62%.
The same measure, in the same setting: the figure for CCCAAAAATGTCCTAG (sugars k3 d10 k3, PS) is 18%.
Consider “AACAUCTCTGGGACCA (sugars k3 d1 m1 d8 k3, PS)”, for which, under “1 µM”, the target mRNA inhibition was determined as 64%.
Same read-out and setting: the result for “ACACUAATATTGAGGC (sugars k3 d1 m1 d8 k3, PS)” reads 43%; that for TAGGATGTTGACCTCA (sugars k3 d10 k3, PS), 19%.
Take TAAGTTACCAGAGCAT (sugars k3 d10 k3, PS): the target mRNA inhibition is, setting by setting: (0.02 µM) 0%; (0.078 µM) 0%; (0.313 µM) 30%; (1 µM) 77%; (1.25 µM) 71%; (5 µM) 91%.
GAAGTGATCCATATTC (sugars k3 d10 k3, PS) returned a target mRNA inhibition (1 µM) of 44%.
The same measure, in the same setting: the figure for CATAATAATAGCTCTA (sugars k3 d10 k3, PS) is 41%.
For ATACATCAACTCCTCT (sugars k3 d10 k3, PS), the target mRNA inhibition (0.02 µM) amounted to 0%; the target mRNA inhibition (0.078 µM) was 9%; the target mRNA inhibition (0.313 µM) was determined as 26%; the target mRNA inhibition (1 µM) worked out at 64%; the target mRNA inhibition (1.25 µM) is 63%; the target mRNA inhibition (5 µM) was 83%.
In the case of AAAGTTTGTTAGAGTG (sugars k3 d10 k3, PS), the target mRNA inhibition was 0% (0.02 µM); 6% (0.078 µM); 0% (0.313 µM); 75% (1 µM); 55% (1.25 µM); 78% (5 µM).
Turning to ATTGCAGTTATTAGAA (sugars k3 d10 k3, PS), the target mRNA inhibition (1 µM) is 42%.
Turning to GTGATTGAGTTCTCCA (sugars k3 d10 k3, PS), the target mRNA inhibition by setting is: (0.02 µM) 10%; (0.078 µM) 14%; (0.313 µM) 32%; (1 µM) 80%; (1.25 µM) 73%; (5 µM) 83%.
As for “TAATACATTAGCAAGC (sugars kkdddddddddkekek, PS)”, for the setting “1 µM”, the target mRNA inhibition came to 34%.
With GCATTGTAATCTTGAG (sugars k3 d10 k3, PS), the target mRNA inhibition (1 µM) worked out at 35%.
Same read-out and setting: the result for ATCAGACTTCTTACGA (sugars k3 d10 k3, PS) reads 45%; that for AGATTTACTTCCTTGT (sugars k3 d10 k3, PS), 41%; that for “TTGAGTAGTGTAAGCT (sugars k3 d9 k3 e1, PS)”, 40%.
Consider GTGTTTACAAGTAAGA (sugars k3 d10 k3, PS), for which the target mRNA inhibition (1 µM) was 79%.
Consider GGAAGATTAATCATAA (sugars k3 d10 k3, PS), for which the target mRNA inhibition (1 µM) is 32%.
The sequence TGAGAAGATCGGCTGG (sugars k3 d10 k3, PS) had a target mRNA inhibition (1 µM) of 37%.
Still for that read-out and setting: the figure for “ATAGAGTCGGTCACCT (sugars k3 d1 m1 d8 k3, PS)” is 50%.
On the same count and under the same terms, the result for AATTACTCCGTTCTGC (sugars k3 d10 k3, PS) reads 6%; that for “CTAGGGAAATCTTTCA (sugars k3 d1 m1 d8 k3, PS)”, 19%.
Still for that read-out and setting: the figure for ACTCTATTGATTGGCT (sugars k3 d10 k3, PS) is 57%; for AGTTATTCTCTTGACA (sugars k3 d10 k3, PS) it is 48%.
Regarding AGTCCAGAATAGAGTT (sugars k3 d10 k3, PS), the target mRNA inhibition (1 µM) stood at 58%.
Still for that read-out and setting: the figure for GACAGTAGATTTGGTA (sugars k3 d10 k3, PS) is 34%.
The sequence CATAAAGCTGGATTGT (sugars k3 d10 k3, PS) returned a target mRNA inhibition (1 µM) of 0%.
For the sequence ACAACTGGAGGTATGT (sugars k3 d10 k3, PS), for the setting “1 µM”, the target mRNA inhibition stood at 0%.
Same read-out and setting: the result for TACTGTCCCAGCATTA (sugars k3 d10 k3, PS) reads 21%; that for GACAACAAACAATGGG (sugars k3 d10 k3, PS), 39%.
Regarding CCTTGTGTAGTCCTAG (sugars k3 d10 k3, PS), the target mRNA inhibition runs as follows: (0.02 µM) 4%; (0.078 µM) 28%; (0.313 µM) 44%; (1 µM) 67%; (1.25 µM) 72%; (5 µM) 85%.
ATAGGGAGACCATGCT (sugars k3 d10 k3, PS): the target mRNA inhibition (1 µM) amounted to 64%.
Same read-out and setting: the result for “TTATAACTACAAGAGG (sugars k3 d1 m1 d8 k3, PS)” reads 58%; that for CTCCGTGTAGTTTGGT (sugars k3 d10 k3, PS), 28%; that for GTAAGCACAGAAGTTT (sugars k3 d10 k3, PS), 55%.
Same read-out and setting: the figure for GTAGATGATGGTGATC (sugars k3 d10 k3, PS) is 36%; for ATAAAAATTGGCCTCC (sugars k3 d10 k3, PS) it is 41%.
Same read-out and setting: the figure for TCCATGCAAAAGCATT (sugars k3 d10 k3, PS) is 62%; for ACTCCGTTATAAGTTT (sugars k3 d10 k3, PS) it is 42%.
For TGGTGGACTTCAGAGT (sugars k3 d10 k3, PS), the target mRNA inhibition (1 µM) was found to be 17%.
For the sequence GCATTGATTCGAAACT (sugars k3 d10 k3, PS), the target mRNA inhibition (1 µM) is 66%.
For the setting “1 µM”, “TGTCCACCTTTAAATG (sugars k3 d1 m1 d8 k3, PS)” gave a target mRNA inhibition of 17%.
Same read-out and setting: the figure for TGTTACATCACCCACT (sugars k3 d10 k3, PS) is 35%.
The same measure, in the same setting: the result for ATCCCCTAAGTTATTA (sugars k3 d10 k3, PS) reads 13%; that for AATGTATGAGGTCTCC (sugars k3 d10 k3, PS), 65%.
Still for that read-out and setting: the result for TTATTGTAGGGATTGA (sugars k3 d10 k3, PS) reads 63%.
Sequence “AGTCUTAAACCTTCCC (sugars k3 d1 m1 d8 k3, PS)” displayed a target mRNA inhibition (1 µM) of 52%.
Same read-out and setting: the figure for “ACGGTGATCAAATGTA (sugars kkdddddddddkekek, PS)” is 33%.
CAAGTTTTCACCTCAG (sugars k3 d10 k3, PS): the target mRNA inhibition is, setting by setting: (0.02 µM) 17%; (0.078 µM) 41%; (0.313 µM) 75%; (1 µM) 93%; (1.25 µM) 92%; (5 µM) 95%.
With TTCTAGGTCAGTAGAG (sugars k3 d10 k3, PS), under “1 µM”, the target mRNA inhibition turned out to be 58%.
Consider ACCGTTTTGGGCTAAT (sugars k3 d10 k3, PS), for which the target mRNA inhibition (0.02 µM) was determined as 0%; the target mRNA inhibition (0.078 µM) is 0%; the target mRNA inhibition (0.313 µM) was 45%; the target mRNA inhibition (1 µM) was found to be 78%; the target mRNA inhibition (1.25 µM) was determined as 81%; the target mRNA inhibition (5 µM) worked out at 95%.
Turning to TAGTATTTGGGTGTTC (sugars k3 d10 k3, PS), the target mRNA inhibition (1 µM) was found to be 27%.
Same read-out and setting: the figure for AGGTTTAGCAATTTAG (sugars k3 d10 k3, PS) is 54%; for CTTGAGAGTGATTGCC (sugars k3 d10 k3, PS) it is 64%; for GTTTACTCACTTCTGG (sugars k3 d10 k3, PS) it is 29%.
Regarding “TGTGATTGAGTTCTCC (sugars k3 d9 k3 e1, PS)”, the target mRNA inhibition (1 µM) is 52%.
As to “AGCTTTTGTCCACCTT (sugars k3 d9 k3 e1, PS)”, the target mRNA inhibition (1 µM) stood at 69%.
As to AGAACCAATATGCTCT (sugars k3 d10 k3, PS), where the note is “1 µM”, the target mRNA inhibition came to 38%.
